Source: PMC8143339, “PK/PD Modeling of the PDE7 Inhibitor—GRMS-55 in a Mouse Model of Autoimmune Hepatitis” (Pharmaceutics, 2021)

Tests used:
[1] = Stability in serum samples and stock solutions (bioanalytical validation); assay type: physicochemical, mouse
Experimental: To analyze GRMS-55 concentrations in the mouse serum, we used the previously developed HPLC method with UV detection. A detailed description of this method was published in a supplementary material of our previous publication. Briefly, 10 μL of 4-(8-((furan-2-ylmethyl)amino)-1,3-dimethyl-2,6-dioxo-1,2,3,6-tetrahydro-7H-purin-7-yl)-N′-(2-hydroxybenzylidene)butanehydrazide solution as internal standard (IS) was added to tubes containing 100 μL of the analyzed serum. The samples were mixed with 20 μL of 1 M hydrochloric acid solution, subjected to extraction with 1 mL of dichloromethane, and centrifuged at 10,000× g for 8 min. The organic layers were transferred to new tubes and evaporated with nitrogen at 37 °C. Dry residues were then dissolved in 100 μL of mobile phase and transferred to glass vial inserts for HPLC analysis (LaChrom Elite, Merck-Hitachi, Darmstadt, Germany). […] Within runs and between runs, precision and accuracy met the acceptance criteria, i.e., they were less than 15% expressed as coefficients of variation % (CVs%) or ±15% of the nominal concentrations, respectively, for all quality control levels. Recoveries of the analyzed compound and IS assessed by comparing the peak areas of extracted samples with corresponding extracts of blanks spiked with the analyte post-extraction ranged from 94% to 98%. The lower limit of quantification was 0.05 mg·L^−1. […]

[2] = set-up: method as in PMID 31899535; conditions: cited from earlier work

## Cn1c(=O)c2c(nc(NCCc3ccccc3)n2CCCC(=O)NN=Cc2ccccc2O)n(C)c1=O [GRMS-55, 4-(1,3-dimethyl-2,6-dioxo-8-(phenethylamino)-1,2,3,6-tetrahydro-7H-purin-7-yl)-N′-(2-hydroxybenzylidene)butanehydrazide]
[1]; room temperature
  stability in serum samples, time stable: at least 12 h
[1]; –20 °C
  stability in serum samples, time stable: 12 months
[2]; male Wistar rats
  apparent volume of distribution at steady state: ~7 L/kg
[2]; male and female rats
  half-life: approximately 20 min
